Measurements taken from US20220289678A1, “COMPOUND, POLYMER, AND ORGANIC MATERIAL, AND OPTICAL APPARATUS, OPTICAL PART, AND IMAGE DISPLAY APPARATUS USING THE ORGANIC MATERIAL” (Sony Group Corporation, priority 2019, published 2022).

Test: Density by dry densitometer
Type: physicochemical
Conditions: dry densitometer AccuPyc II 1340-10CC
Procedure: (§1) An acetone solution or a chloroform solution of each of the compounds according to Test Examples 1 to 15 was prepared, and the average refractive index to light of 589 nm at room temperature of 25±1° C. was measured by an Abbe refractometer (manufactured by ERMA INC., ER-1), and plotted against the volume fraction of each compound to prepare a calibration curve. Note that as the density of each compound, a value determined by a dry densitometer (AccuPyc II 1340-10CC (manufactured by Shimadzu Corporation)) was used. The calibration curve was extrapolated, and the refractive index when the volume fraction of each compound became 1 was used as the refractive index of each compound. The measurement results of the refractive index and density (g/cm^3) of each of the compounds according to Test Examples 1 to 15 are shown in Table 1 below.

Row | Compound | Density [g/mL]
1 | C=CC(=O)OCCn1c2ccc3ccccc3c2c2c3ccccc3ccc21 [(6-3)] | 1.22
2 | C=CC(=O)Oc1cc(OC(=O)C=C)cc(-n2c3ccc4ccccc4c3c3c4ccccc4ccc32)c1 [(6-8)] | 1.31
3 | C=CC(=O)Oc1cc(Cn2c3ccc4ccccc4c3c3c4ccccc4ccc32)cc(OC(=O)C=C)c1 [(10-1)] | 1.3
4 | C=CC(=O)Oc1cc(CCn2c3ccc4ccccc4c3c3c4ccccc4ccc32)cc(OC(=O)C=C)c1 [(10-2)] | 1.29
5 | C=CC(=O)OCCOc1cc(Cn2c3ccc4ccccc4c3c3c4ccccc4ccc32)cc(OCCOC(=O)C=C)c1 [(10-3)] | 1.29
6 | C=CC(=O)OCC(Cn1c2ccc3ccccc3c2c2c3ccccc3ccc21)OC(=O)C=C (centres unmarked) [(10-4)] | 1.22
7 | C=C(C)C(=O)OCC(Cn1c2ccc3ccccc3c2c2c3ccccc3ccc21)OC(=O)C(=C)C (centres unmarked) [(10-5)] | 1.26
8 | C=CC(=O)OCCn1c2ccccc2c2c3ccccc3ccc21 [(10-8)] | 1.3
9 | C=CC(=O)OCCn1c2ccccc2c2ccc3ccccc3c21 [(10-9)] | 1.31
10 | C=CC(=O)OCCOc1cc(OCCOC(=O)C=C)cc(-n2c3ccc4ccccc4c3c3c4ccccc4ccc32)c1 [(10-10)] | 1.27
11 | C=CC(=O)OCCOc1cc(OCCOC(=O)C=C)cc(-n2c3ccccc3c3c4ccccc4ccc32)c1 [(10-12)] | 1.26
12 | C=CC(=O)OCCn1c2ccccc2c2ccccc21 [(11-1), acrylic acid 2-(9H-carbazol-9-yl) ethyl, reference compound] | 1.21

Test: Refractive index of compound, Abbe refractometer, calibration curve extrapolated
Type: physicochemical
Conditions: average refractive index to light of 589 nm, 25±1° C., acetone or chloroform solution, extrapolated to volume fraction 1
Procedure: Note that the refractive index can be measured by a critical angle method or a spectroscopic ellipsometry method. For example, in the critical angle method, measurement can be performed using an Abbe refractometer ER-1 manufactured by ERMA INC (measurement wavelengths are measured in visible light areas using 486 nm, 589 nm, 656 nm, and the like).
as §1

Row | Compound | Refractive index
13 | C=CC(=O)Oc1cc(CCn2c3ccc4ccccc4c3c3c4ccccc4ccc32)cc(OC(=O)C=C)c1 [(10-2)] | 1.73
14 | C=CC(=O)OCCOc1cc(Cn2c3ccc4ccccc4c3c3c4ccccc4ccc32)cc(OCCOC(=O)C=C)c1 [(10-3)] | 1.71
15 | C=CC(=O)OCC(Cn1c2ccc3ccccc3c2c2c3ccccc3ccc21)OC(=O)C=C (centres unmarked) [(10-4)] | 1.72
16 | C=C(C)C(=O)OCC(Cn1c2ccc3ccccc3c2c2c3ccccc3ccc21)OC(=O)C(=C)C (centres unmarked) [(10-5)] | 1.72
17 | C=CC(=O)OCCn1c2ccccc2c2c3ccccc3ccc21 [(10-8)] | 1.74
18 | C=CC(=O)OCCn1c2ccccc2c2ccc3ccccc3c21 [(10-9)] | 1.74
19 | C=CC(=O)OCCOc1cc(OCCOC(=O)C=C)cc(-n2c3ccccc3c3c4ccccc4ccc32)c1 [(10-12)] | 1.69
20 | C=CC(=O)OCCn1c2ccccc2c2ccccc21 [(11-1), acrylic acid 2-(9H-carbazol-9-yl) ethyl, reference compound] | 1.68

Same assay, conditions: comparison in words

Row | Compound | Refractive index compared with compound (11-1) according to Test Example 15
21 | C=CC(=O)OCCn1c2ccc3ccccc3c2c2c3ccccc3ccc21 [(6-3)] | higher than the refractive index of the compound (11-1)
22 | C=CC(=O)Oc1cc(OC(=O)C=C)cc(-n2c3ccc4ccccc4c3c3c4ccccc4ccc32)c1 [(6-8)] | higher than the refractive index of the compound (11-1)
23 | C=CC(=O)Oc1cc(Cn2c3ccc4ccccc4c3c3c4ccccc4ccc32)cc(OC(=O)C=C)c1 [(10-1)] | higher than the refractive index of the compound (11-1)
24 | C=CC(=O)Oc1cc(CCn2c3ccc4ccccc4c3c3c4ccccc4ccc32)cc(OC(=O)C=C)c1 [(10-2)] | higher than the refractive index of the compound (11-1)
25 | C=CC(=O)OCCOc1cc(Cn2c3ccc4ccccc4c3c3c4ccccc4ccc32)cc(OCCOC(=O)C=C)c1 [(10-3)] | higher than the refractive index of the compound (11-1)
26 | C=CC(=O)OCC(Cn1c2ccc3ccccc3c2c2c3ccccc3ccc21)OC(=O)C=C (centres unmarked) [(10-4)] | higher than the refractive index of the compound (11-1)
27 | C=C(C)C(=O)OCC(Cn1c2ccc3ccccc3c2c2c3ccccc3ccc21)OC(=O)C(=C)C (centres unmarked) [(10-5)] | higher than the refractive index of the compound (11-1)
28 | C=CC(=O)OCCOCC(Cn1c2ccc3ccccc3c2c2c3ccccc3ccc21)OCCOC(=O)C=C (centres unmarked) [(10-6)] | higher than the refractive index of the compound (11-1)
29 | C=C(C)C(=O)OCCOCC(Cn1c2ccc3ccccc3c2c2c3ccccc3ccc21)OCCOC(=O)C(=C)C (centres unmarked) [(10-7)] | higher than the refractive index of the compound (11-1)
30 | C=CC(=O)OCCn1c2ccccc2c2c3ccccc3ccc21 [(10-8)] | higher than the refractive index of the compound (11-1)
31 | C=CC(=O)OCCn1c2ccccc2c2ccc3ccccc3c21 [(10-9)] | higher than the refractive index of the compound (11-1)
32 | C=CC(=O)OCCOc1cc(OCCOC(=O)C=C)cc(-n2c3ccc4ccccc4c3c3c4ccccc4ccc32)c1 [(10-10)] | higher than the refractive index of the compound (11-1)
33 | C=CC(=O)OCCCCOc1cc(OCCCCOC(=O)C=C)cc(-n2c3ccc4ccccc4c3c3c4ccccc4ccc32)c1 [(10-11)] | higher than the refractive index of the compound (11-1)
34 | C=CC(=O)OCCOc1cc(OCCOC(=O)C=C)cc(-n2c3ccccc3c3c4ccccc4ccc32)c1 [(10-12)] | higher than the refractive index of the compound (11-1)

Test: Solubility in organic solvent, visual dissolution
Type: physicochemical
Conditions: acetone, ultrasonic stirring
Procedure: 20 mg of each of the compounds according to Test Examples 1 to 15 was weighed into a vial bottle, acetone was added to make a total amount of […], and then, the mixture was stirred with ultrasonic waves for 30 seconds. In the case where there was an undissolved product by visual recognition, a small amount of acetone was added thereto, and the mixture was stirred for another 30 seconds. The task described above was repeated, and the solubility was calculated from the total amount of solvents when all were dissolved.

Row | Compound | Solubility Acetone [wt %]
35 | C=CC(=O)Oc1cc(OC(=O)C=C)cc(-n2c3ccc4ccccc4c3c3c4ccccc4ccc32)c1 [(6-8)] | 3
36 | C=CC(=O)Oc1cc(Cn2c3ccc4ccccc4c3c3c4ccccc4ccc32)cc(OC(=O)C=C)c1 [(10-1)] | 5
37 | C=CC(=O)Oc1cc(CCn2c3ccc4ccccc4c3c3c4ccccc4ccc32)cc(OC(=O)C=C)c1 [(10-2)] | 20
38 | C=CC(=O)OCCn1c2ccccc2c2c3ccccc3ccc21 [(10-8)] | 18
39 | C=CC(=O)OCCn1c2ccccc2c2ccc3ccccc3c21 [(10-9)] | 5
40 | C=CC(=O)OCCn1c2ccccc2c2ccccc21 [(11-1), acrylic acid 2-(9H-carbazol-9-yl) ethyl, reference compound] | 44

Same assay, conditions: chloroform, ultrasonic stirring

Row | Compound | Solubility Chloroform [wt %]
41 | C=CC(=O)Oc1cc(Cn2c3ccc4ccccc4c3c3c4ccccc4ccc32)cc(OC(=O)C=C)c1 [(10-1)] | 17
42 | C=C(C)C(=O)OCC(Cn1c2ccc3ccccc3c2c2c3ccccc3ccc21)OC(=O)C(=C)C (centres unmarked) [(10-5)] | 19
43 | C=CC(=O)OCCn1c2ccccc2c2ccc3ccccc3c21 [(10-9)] | 13

Test: not given
Conditions: commercial product, Osaka Gas Chemical Co., Ltd.; cited from earlier work

Row | Compound | Refractive index
44 | bisphenoxyethanol fluorene diacrylate [EA-0200] | 1.62
